Results on eight compounds are retold here after US10398676B2, “Use of alpha-hydroxy carbonyl compounds as reducing agents” (Morvus Technology Ltd, priority 2005, dated 2019).

Bounds are passed on as bounds.

This test is described as follows: DHA reduction of prodrugs and nitro compounds, HPLC initial rate (Examples 5 and 6). As to conditions: 100 μM compound, 10 mM DHA, 37° C. In kind it is physicochemical. On the procedure: The assay mixture contained the compound under test (100 μM) and DHA (10 mM) in a final reaction volume of 1 mL of sodium phosphate buffer (of the required pH). The reaction was started by addition of DHA and the mixture is incubated at 37° C.

With `Cc1ncc([N+](=O)[O-])n1CCO` [Metronidazole, 2-methyl-5-nitro-1H-imidazole-1-ethanol], the “INITIAL RATE, 0.1 M PO4, pH7.5” value turned out to be 0.131 nmoles/min/mL; the “INITIAL RATE, 0.1 M PO4, pH8” value is reported as 0.369 nmoles/min/mL; the “Initial Rate, pH 8” value stood at 0.369 nmoles/min/mL; the “Initial Rate, pH 9” value came to 0.890 nmoles/min/mL. Further, the “Initial Rate, pH 10” value came out at 1.239 nmoles/min/mL and the “Initial Rate, pH 10.6” value was 0.807 nmoles/min/mL.
For the compound `NC(=O)N/N=C/c1ccc([N+](=O)[O-])o1` [Nitrofurazone, 2-[(5-nitro-2-furanyl)methylene]hydrazinecarboxamide], the “INITIAL RATE, 0.1 M PO4, pH7.5” value worked out at 0.177 nmoles/min/mL; the “INITIAL RATE, 0.1 M PO4, pH8” value is 0.203 nmoles/min/mL; the “Initial Rate, pH 7.5” value was found to be 0.177 nmoles/min/mL; the “Initial Rate, pH 8” value stood at 0.203 nmoles/min/mL. For the same compound, the “Initial Rate, pH 8.5” value is given as 0.260 nmoles/min/mL; the “Initial Rate, pH 9” value stood at 2.390 nmoles/min/mL; the “Initial Rate, pH 10” value was 3.789 nmoles/min/mL.
With `Cc1cc(Cl)c([N+](=O)[O-])cc1[N+](=O)[O-]` [5-chloro-2,4-dinitrotoluene], the “Initial Rate, pH 8” value came to 0.132 nmoles/min/mL; the “Initial Rate, pH 9” value came to 0.499 nmoles/min/mL; the “Initial Rate, pH 10” value is on record as 0.690 nmoles/min/mL; the “Initial Rate, pH 10.6” value is given as 1.703 nmoles/min/mL.
As to `O=[N+]([O-])c1nccn1CC(O)CN1CC1` (stereo not drawn) [RSU-1069/RB-1645, 1-(1-aziridinyl)-3-(2-nitro-1-imidazolyl)-2-propanol], the “INITIAL RATE, 0.1 M PO4, pH7.5” value is listed as under 0.01 nmoles/min/mL and the “INITIAL RATE, 0.1 M PO4, pH8” value worked out at 2.57 nmoles/min/mL.
In the case of `Nc1n[n+]([O-])c2ccccc2[n+]1[O-]` [Tirapazamine, 3-amino-1,2,4-benzotriazine-1,4-dioxide], the “INITIAL RATE, 0.1 M PO4, pH7.5” value came out at 0.523 nmoles/min/mL; the “INITIAL RATE, 0.1 M PO4, pH8” value was 0.512 nmoles/min/mL; the “Initial Rate, pH 7.5” value is given as 0.523 nmoles/min/mL; the “Initial Rate, pH 8” value was determined as 0.512 nmoles/min/mL. In addition, the “Initial Rate, pH 8.5” value was found to be 0.639 nmoles/min/mL; the “Initial Rate, pH 9” value amounted to 3.503 nmoles/min/mL; the “Initial Rate, pH 10” value was 4.209 nmoles/min/mL.
For `O=C(O)c1cc([N+](=O)[O-])c(Cl)c([N+](=O)[O-])c1` [4-chloro-3,5-dinitrobenzoic acid], the “Initial Rate, pH 8” value worked out at 0.195 nmoles/min/mL; the “Initial Rate, pH 9” value was determined as 1.293 nmoles/min/mL; the “Initial Rate, pH 10” value is recorded as 1.727 nmoles/min/mL; the “Initial Rate, pH 10.6” value is given as 2.442 nmoles/min/mL.
In the case of `COCC(O)Cn1ccnc1[N+](=O)[O-]` (stereo not drawn) [Misonidazole], the “INITIAL RATE, 0.1 M PO4, pH7.5” value was 0.221 nmoles/min/mL; the “INITIAL RATE, 0.1 M PO4, pH8” value was 1.922 nmoles/min/mL; the “Initial Rate, pH 8” value is on record as 1.922 nmoles/min/mL; the “Initial Rate, pH 9” value is given as 1.851 nmoles/min/mL. The “Initial Rate, pH 10” value is 3.180 nmoles/min/mL.
`O=[N+]([O-])c1ccc(CO)cc1` [4-nitrobenzyl alcohol]: the “Initial Rate, pH 8” value was under 0.01 nmoles/min/mL; the “Initial Rate, pH 9” value was under 0.01 nmoles/min/mL; the “Initial Rate, pH 10” value is given as 0.105 nmoles/min/mL; the “Initial Rate, pH 10.6” value was found to be 0.087 nmoles/min/mL.
